Patent US11278629B2, “Methods for improving anti-CD37 immunoconjugate therapy” (Debiopharm International, S.A., priority 2016, dated 2022)

Legend:
lymphoma cell lines [1] = test: Cell proliferation, MTT assay, fifty-four lymphoma cell lines; format: cell-based; conditions: 72 hours exposure, read-out: median IC50
Description: (§1) Fifty-four lymphoma cell lines (ALCL, anaplastic large cell lines (n=5); CLL, chronic lymphocytic leukemia (n=2); ABC-DLBCL, activated B cell like diffuse large B cell (n=7); GCB-DLBCL, germinal center B cell like diffuse large B cell (n=20); MCL, mantle cell lymphoma (n=10); MZL, marginal zone lymphoma (n=6); PMBCL, Primary Mediastinal Large B-Cell Lymphoma (n=1); SMZL, splenic marginal zone lymphoma (n=3)) were exposed to increasing doses of IMGN529 or to the unconjugated cytotoxic payload DM1 for 72 hours. Cell proliferation was measured using the MTT assay. Apoptosis induction was defined by at least a 1.5-fold increase in caspase 3/7 signal activation with respect to controls using the Promega ApoTox-Glo Triplex Assay. CD37 surface expression was assessed by cytofluorimetry. Gene expression profiling (GEP) was done with the Illumina HumanHT-12 Expression BeadChips on untreated cell lines followed by GSEA (NES>|2|, P<0.05, FDR<0.25) and limma t-test (FC>|1.2|; P<0.05; top 200 up and top 200 down).

lymphoma cell lines [2] = test: Apoptosis induction, caspase 3/7 activation (Promega ApoTox-Glo Triplex Assay); format: cell-based; conditions: 33/54 cell lines; apoptosis = at least 1.5-fold increase in caspase 3/7 signal vs controls
Description: as §1

| Molecule | IC50 (lymphoma cell lines [1]) [nM] | lymphoma cell lines in which apoptosis was induced (lymphoma cell lines [2]) [%] |
| --- | --- | --- |
| COc1cc2cc(c1Cl)N(C)C(=O)C[C@H](OC(=O)[C@H](C)N(C)C(=O)CCS)[C@]1(C)O[C@H]1[C@H](C)C1C[C@@](O)(NC(=O)O1)[C@H](OC)/C=C/C=C(\C)C2 [DM1, N^2′-deacetyl-N^2′-(3-mercapto-1-oxopropyl)-maytansine] | 0.03 |  |
| IMGN529: immunoconjugate containing the huCD37-3 antibody, the SMCC linker, and the DM1 maytansinoid |  | 61 |
